Assay results reported in ChEMBL document CHEMBL1201862, “PubChem BioAssay data set” (2004).
Calls of active or inactive are those of the source.

How the values were obtained:
[1] = target: NAD-dependent protein deacylase sirtuin-5, mitochondrial (Homo sapiens, UniProt Q9NXA8); assay: sirtuin-5 deacylation blockers, concentration series – biochemical, fluorescence imaging, cherry-pick, set 5, dose response (AID 720591);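 also: desuccinylation of succinyl peptide AMC substrate read as fluorescence after trypsin release; potency of inhibitors that lower fluorescence and may act on trypsin instead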
[2] = target: T1, Oxysterols receptor LXR-beta (Homo sapiens, UniProt P55055); format: functional, cell-based
T1 sequence (P55055 whole entry): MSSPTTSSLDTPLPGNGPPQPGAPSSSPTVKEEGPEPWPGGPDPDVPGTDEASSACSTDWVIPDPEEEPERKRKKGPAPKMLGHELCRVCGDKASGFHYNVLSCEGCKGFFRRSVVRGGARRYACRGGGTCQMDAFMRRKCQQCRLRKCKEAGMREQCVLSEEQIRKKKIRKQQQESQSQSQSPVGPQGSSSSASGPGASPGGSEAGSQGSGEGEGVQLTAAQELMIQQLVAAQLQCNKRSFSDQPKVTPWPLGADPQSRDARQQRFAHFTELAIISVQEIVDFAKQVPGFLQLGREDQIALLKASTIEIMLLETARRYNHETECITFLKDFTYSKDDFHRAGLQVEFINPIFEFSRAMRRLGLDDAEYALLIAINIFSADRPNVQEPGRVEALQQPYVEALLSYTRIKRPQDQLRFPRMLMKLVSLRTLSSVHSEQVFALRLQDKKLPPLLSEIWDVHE

[3] = target: T1, Oxysterols receptor LXR-beta; assay: LXR agonists, Gal4 luciferase reporter, dose response, counter-screen for ssDAF-12 agonist project, cell-based, luminescence, HEK293, S. stercoralis campaign (AID 720737); format: functional; conditions: read-out: IC50 (the source's name)
[4] = cells
[5] = target: T1, Oxysterols receptor LXR-beta; format: functional, cell-based; remark: listed apart in the source
[6] = Luminescence-based cell-based high throughput dose response assay to identify activators of the DAF-12 from the parasite S. stercoralis (ssDAF-12).; format: functional
[7] = system: INS1; assay: INS-1E survival protection against cytokine death – cell-based, luminescence, retest, dose response (AID 449756); format: functional; conditions: Rattus norvegicus;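 also: cell death triggered by IL-1 beta plus TNF-alpha plus IFN-gamma mixture; protective hits raise ATP signal compared with cytokine alone wells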
[8] = target: T2, High affinity choline transporter 1 (Homo sapiens, UniProt Q9GZV3); assay: human choline transporter blockers, potency – cell-based, 5-point CRC, membrane potential dye, dose response (AID 504840); format: functional
T2 sequence (Q9GZV3 whole entry): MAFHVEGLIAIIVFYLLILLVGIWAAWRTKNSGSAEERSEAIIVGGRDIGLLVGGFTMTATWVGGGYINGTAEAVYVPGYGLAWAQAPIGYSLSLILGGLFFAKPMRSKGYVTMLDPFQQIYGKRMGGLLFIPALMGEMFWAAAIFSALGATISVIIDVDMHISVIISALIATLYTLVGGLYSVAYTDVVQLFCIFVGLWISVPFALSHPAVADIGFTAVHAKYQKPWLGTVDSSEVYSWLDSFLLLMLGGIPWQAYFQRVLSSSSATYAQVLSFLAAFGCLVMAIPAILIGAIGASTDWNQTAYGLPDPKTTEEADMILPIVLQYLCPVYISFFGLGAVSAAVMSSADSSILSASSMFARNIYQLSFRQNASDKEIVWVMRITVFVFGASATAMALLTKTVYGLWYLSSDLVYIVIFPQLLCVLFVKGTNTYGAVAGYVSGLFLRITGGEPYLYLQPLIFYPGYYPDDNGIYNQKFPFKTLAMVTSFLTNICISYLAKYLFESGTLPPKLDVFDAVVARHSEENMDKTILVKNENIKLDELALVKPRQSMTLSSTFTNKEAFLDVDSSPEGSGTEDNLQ

[9] = target: COUP transcription factor 2 (Homo sapiens, UniProt P24468); assay: Luminescence-based cell-based high throughput dose response assay to identify inhibitors of COUP-TFII (NR2F2).; format: functional;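 also: HEK293 cells transiently cotransfected with COUP-TFII expression vector and reporter; luciferase reporter luminescence driven by COUP-TFII from the pX2-168 reporter plasmid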
[10] = HEK-293T cell viability reduction – luminescence, B-cell screen hits, cytotoxicity control for BCR NF-kB inhibitor project, dose response (AID 489021); format: functional, cell-based;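 also: HEK-293T cells carrying an NF-kB luciferase reporter; cells exposed to compound for about 14 hours before viability readout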
[11] = blockers of HIV-1 ZM109 envelope-driven cell-cell fusion – HeLa effector, CEM target cells, luciferase, cherry-pick, dose response (AID 652058); format: functional, cell-based;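 also: luciferase signal from HIV-1 Env mediated cell-cell fusion of effector and target cells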
[12] = cells; format: functional, cell-based; conditions: HEK-CNG
[13] = target: T3, Galanin receptor type 3 (Homo sapiens, UniProt O60755); assay: Fluorescence-based cell-based primary high throughput dose response assay to identify antagonists of the Galanin Receptor 3 (GalR3).; format: functional
T3 sequence (O60755 whole entry): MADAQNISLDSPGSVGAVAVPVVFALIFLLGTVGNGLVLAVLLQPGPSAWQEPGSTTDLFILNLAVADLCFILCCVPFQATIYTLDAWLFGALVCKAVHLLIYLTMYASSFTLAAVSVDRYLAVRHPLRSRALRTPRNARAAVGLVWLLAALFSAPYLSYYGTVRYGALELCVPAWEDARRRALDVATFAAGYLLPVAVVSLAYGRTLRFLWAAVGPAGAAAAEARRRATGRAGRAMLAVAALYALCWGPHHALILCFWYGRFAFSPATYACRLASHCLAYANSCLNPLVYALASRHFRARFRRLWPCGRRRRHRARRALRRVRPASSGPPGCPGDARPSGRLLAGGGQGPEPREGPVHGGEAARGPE

[14] = HIV-1 AD8 envelope cell-cell fusion blockers – cherry-pick, dose response (AID 652062); format: functional, cell-based;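 also: luciferase signal from cell-cell fusion driven by HIV-1 clade B AD8 Env; potency is for inhibitors of fusion seen as a drop in luminescence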
[15] = target: 1-phosphatidylinositol 4,5-bisphosphate phosphodiesterase beta-3 (Homo sapiens, UniProt Q01970); assay: Fluorescence-based biochemical high throughput dose response assay to identify inhibitors of phospholipase C isozymes (PLC-B3).
[16] = target: 1-phosphatidylinositol 4,5-bisphosphate phosphodiesterase gamma-1 (Homo sapiens, UniProt P19174); assay: Counterscreen for inhibitors of phospholipase C isozymes (PLC-B3): Fluorescence-based biochemical high throughput dose response assay to identify inhibitors of phospholipase C isozymes (PLC-gamma1).
[17] = cells; format: functional, cell-based
[18] = cells; format: functional, cell-based; remark: listed apart in the source
[19] = Shn3 3'UTR reporter signal decrease – cell-based, Clone20 osteoblasts, firefly luciferase, cherry-pick, set 2, Schnurri-3 inhibitor project, dose response (AID 720490); format: functional;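 also: actives lower the luminescence signal as inhibitors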
[20] = target: Protein Wnt-3a (Mus musculus, UniProt P27467); assay: antagonism of Wnt3a pathway luciferase reporter – Wnt-LIGHT cells, luminescence, selectivity assay for Gli-SUFU antagonist project, dose response (AID 651570); format: functional; conditions: read-out: IC50_Mean;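 also: Wnt-LIGHT reporter cells stimulated with conditioned medium from Wnt3a-producing cells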
[21] = non-specific 3'UTR reporter inhibition in Clone20-Shn3RL – cell-based, Renilla luciferase, cherry-picked, counter-screen for Shn3 inhibitor project, dose response (AID 624133); format: functional
[22] = reduction of Shn3 3'UTR-driven luciferase in osteoblasts – cell-based, Clone20 osteoblasts, firefly luciferase, cherry-picked, dose response (AID 624132); format: functional;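 also: firefly luciferase luminescence from reporter carrying the Shn3 3'UTR in osteoblasts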
[23] = loss of viability in HepG2 cells – cell-based, CellTiter-Glo, cherry-picked, cytotoxicity control for Shn3 inhibitor project, dose response (AID 624134); format: functional
[24] = cells; format: functional, cell-based; remark: listed apart in the source
[25] = target: T4, Nuclear receptor subfamily 0 group B member 1 (Homo sapiens, UniProt P51843); format: functional, cell-based;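 also: HEK293T cells transfected with SF-1 and DAX-1 plus StAR promoter luciferase reporter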
T4 sequence (P51843 whole entry): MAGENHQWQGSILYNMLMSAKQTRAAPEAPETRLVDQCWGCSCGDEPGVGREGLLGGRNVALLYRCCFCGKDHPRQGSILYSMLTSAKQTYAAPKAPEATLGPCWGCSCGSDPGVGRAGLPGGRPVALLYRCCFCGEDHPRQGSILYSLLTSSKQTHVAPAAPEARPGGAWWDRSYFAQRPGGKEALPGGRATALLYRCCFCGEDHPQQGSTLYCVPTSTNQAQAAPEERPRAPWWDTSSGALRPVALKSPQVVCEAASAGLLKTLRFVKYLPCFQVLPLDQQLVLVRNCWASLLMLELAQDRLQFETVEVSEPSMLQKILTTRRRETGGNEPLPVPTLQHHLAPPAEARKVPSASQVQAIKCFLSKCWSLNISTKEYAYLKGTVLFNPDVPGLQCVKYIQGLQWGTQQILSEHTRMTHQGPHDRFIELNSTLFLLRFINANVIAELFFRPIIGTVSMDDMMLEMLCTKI

[26] = PAX5 cellular inhibition readout – cell-based, plate reader, dry powder samples, selectivity assay for PAX8 inhibitor project, dose response (AID 743047); format: functional;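 also: HEK293 cells carrying a Pax5 driven CD19 promoter luciferase reporter; potency of inhibitors that lower reporter luminescence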
[27] = OVCAR8 cell viability loss – plate reader, dry powder samples, PAX8 project, dose response (AID 743197); format: functional, cell-based; conditions: OVCAR-8
[28] = inhibitors acting on PAX2 in cells – cell-based, plate reader, dry powder samples, selectivity assay for PAX8 inhibitor project, dose response (AID 743048); format: functional;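 also: HEK293 cells carrying a WT1 promoter luciferase reporter driven by expressed Pax2; potency is for inhibition of Pax2 driven reporter signal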
[29] = OVCAR-3 cell viability loss – plate reader, dry powder samples, PAX8 inhibitor project, dose response (AID 743044); format: functional, cell-based
[30] = PAX8-dependent cell viability loss – plate reader, dry powder, dose response (AID 743049); format: functional, cell-based
[31] = A2780 cell killing – plate reader, dry powder samples, cytotoxicity control, dose response (AID 743046); format: functional, cell-based
[32] = COV362 cell viability loss – plate reader, dry powder, SA12, cytotoxicity control for PAX8 inhibitor project, dose response (AID 743144); format: functional, cell-based
[33] = COV434 cell viability loss – plate reader, dry powder, SA7, cytotoxicity control for PAX8 inhibitor project, dose response (AID 743145); format: functional, cell-based
[34] = target: Paired box protein Pax-8 (Homo sapiens, UniProt Q06710); assay: PAX8 transcriptional activity inhibition in RMG-I – RMG-I cells, luciferase, cherry-pick, dose response (AID 687027); format: functional, cell-based;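 also: luciferase reporter driven by Pax8 target thyroperoxidase promoter measured by SteadyGlo luminescence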
[35] = OV-90 cell viability loss – plate reader, dry powder, SA8, PAX8 inhibitor project, dose response (AID 743149); format: functional, cell-based

NAD-dependent protein deacylase sirtuin-5, mitochondrial, sequence (Q9NXA8 whole entry): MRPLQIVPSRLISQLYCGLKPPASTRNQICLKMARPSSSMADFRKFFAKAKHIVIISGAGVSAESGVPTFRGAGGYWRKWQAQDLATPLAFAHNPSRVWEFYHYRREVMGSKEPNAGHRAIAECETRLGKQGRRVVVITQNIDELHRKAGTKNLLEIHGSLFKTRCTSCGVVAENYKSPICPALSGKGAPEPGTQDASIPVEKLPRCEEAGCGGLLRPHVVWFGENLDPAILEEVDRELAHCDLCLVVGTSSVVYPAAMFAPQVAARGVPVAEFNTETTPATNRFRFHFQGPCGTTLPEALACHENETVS
1-phosphatidylinositol 4,5-bisphosphate phosphodiesterase beta-3, sequence (Q01970 whole entry): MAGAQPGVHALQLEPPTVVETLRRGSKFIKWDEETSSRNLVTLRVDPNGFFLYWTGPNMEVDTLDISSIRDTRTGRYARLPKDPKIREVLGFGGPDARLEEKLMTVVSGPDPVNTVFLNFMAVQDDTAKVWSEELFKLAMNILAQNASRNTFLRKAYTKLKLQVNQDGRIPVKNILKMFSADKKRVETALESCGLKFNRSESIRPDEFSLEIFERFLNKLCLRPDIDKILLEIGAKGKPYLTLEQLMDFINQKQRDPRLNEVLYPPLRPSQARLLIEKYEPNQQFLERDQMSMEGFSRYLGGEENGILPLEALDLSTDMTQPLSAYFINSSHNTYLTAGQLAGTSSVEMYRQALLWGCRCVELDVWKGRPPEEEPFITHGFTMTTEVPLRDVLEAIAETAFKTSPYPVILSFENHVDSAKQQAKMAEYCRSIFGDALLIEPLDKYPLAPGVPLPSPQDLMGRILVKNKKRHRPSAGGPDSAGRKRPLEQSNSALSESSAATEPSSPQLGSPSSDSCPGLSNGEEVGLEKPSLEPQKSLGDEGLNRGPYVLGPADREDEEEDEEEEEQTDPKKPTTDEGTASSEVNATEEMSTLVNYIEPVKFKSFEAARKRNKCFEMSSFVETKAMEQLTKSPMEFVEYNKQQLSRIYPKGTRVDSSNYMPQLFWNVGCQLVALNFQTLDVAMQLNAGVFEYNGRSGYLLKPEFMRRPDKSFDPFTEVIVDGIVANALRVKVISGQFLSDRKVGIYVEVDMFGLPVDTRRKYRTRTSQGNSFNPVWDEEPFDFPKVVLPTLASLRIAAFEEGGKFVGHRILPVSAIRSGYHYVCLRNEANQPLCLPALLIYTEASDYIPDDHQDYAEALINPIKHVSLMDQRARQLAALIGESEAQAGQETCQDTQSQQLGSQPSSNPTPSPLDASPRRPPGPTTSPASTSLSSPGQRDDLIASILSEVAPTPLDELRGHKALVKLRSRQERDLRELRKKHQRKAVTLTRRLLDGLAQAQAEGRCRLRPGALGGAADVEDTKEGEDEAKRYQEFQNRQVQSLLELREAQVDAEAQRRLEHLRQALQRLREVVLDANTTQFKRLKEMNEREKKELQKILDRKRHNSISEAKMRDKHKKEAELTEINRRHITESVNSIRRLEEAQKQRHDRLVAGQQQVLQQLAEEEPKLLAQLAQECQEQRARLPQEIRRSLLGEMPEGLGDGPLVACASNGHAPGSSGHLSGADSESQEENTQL
1-phosphatidylinositol 4,5-bisphosphate phosphodiesterase gamma-1, sequence (P19174 whole entry): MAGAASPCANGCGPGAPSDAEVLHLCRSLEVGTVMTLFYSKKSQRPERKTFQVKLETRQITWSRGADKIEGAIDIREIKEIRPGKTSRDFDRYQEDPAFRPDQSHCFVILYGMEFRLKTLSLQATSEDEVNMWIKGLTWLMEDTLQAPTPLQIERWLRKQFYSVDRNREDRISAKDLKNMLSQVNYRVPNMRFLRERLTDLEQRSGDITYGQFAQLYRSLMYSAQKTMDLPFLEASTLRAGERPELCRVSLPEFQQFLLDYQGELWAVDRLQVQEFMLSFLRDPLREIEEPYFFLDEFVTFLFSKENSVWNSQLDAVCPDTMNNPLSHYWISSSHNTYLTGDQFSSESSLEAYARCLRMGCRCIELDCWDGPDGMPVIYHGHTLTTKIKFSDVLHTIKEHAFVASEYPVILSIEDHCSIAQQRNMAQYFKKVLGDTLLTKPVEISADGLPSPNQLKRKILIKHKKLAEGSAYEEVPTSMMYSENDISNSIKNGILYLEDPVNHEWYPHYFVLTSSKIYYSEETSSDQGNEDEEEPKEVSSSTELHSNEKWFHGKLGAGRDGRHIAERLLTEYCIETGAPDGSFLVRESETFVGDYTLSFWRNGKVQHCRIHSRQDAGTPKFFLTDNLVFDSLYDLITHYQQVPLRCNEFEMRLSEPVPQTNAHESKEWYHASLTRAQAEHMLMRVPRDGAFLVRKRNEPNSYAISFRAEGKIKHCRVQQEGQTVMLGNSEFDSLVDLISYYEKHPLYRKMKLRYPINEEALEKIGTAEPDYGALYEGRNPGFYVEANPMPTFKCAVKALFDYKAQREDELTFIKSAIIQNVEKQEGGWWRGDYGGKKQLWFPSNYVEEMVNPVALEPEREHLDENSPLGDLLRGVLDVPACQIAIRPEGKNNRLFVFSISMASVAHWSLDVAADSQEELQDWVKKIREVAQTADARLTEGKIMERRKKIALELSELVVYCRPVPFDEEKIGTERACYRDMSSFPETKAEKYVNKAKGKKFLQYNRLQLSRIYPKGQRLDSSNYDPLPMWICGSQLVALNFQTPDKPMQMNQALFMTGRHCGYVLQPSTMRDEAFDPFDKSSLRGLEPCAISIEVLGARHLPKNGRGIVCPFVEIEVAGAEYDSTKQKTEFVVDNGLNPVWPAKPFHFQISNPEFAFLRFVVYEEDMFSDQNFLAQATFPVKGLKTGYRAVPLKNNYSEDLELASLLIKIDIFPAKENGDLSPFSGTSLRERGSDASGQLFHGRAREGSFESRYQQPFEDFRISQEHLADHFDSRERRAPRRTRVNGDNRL
Protein Wnt-3a, sequence (P27467 whole entry): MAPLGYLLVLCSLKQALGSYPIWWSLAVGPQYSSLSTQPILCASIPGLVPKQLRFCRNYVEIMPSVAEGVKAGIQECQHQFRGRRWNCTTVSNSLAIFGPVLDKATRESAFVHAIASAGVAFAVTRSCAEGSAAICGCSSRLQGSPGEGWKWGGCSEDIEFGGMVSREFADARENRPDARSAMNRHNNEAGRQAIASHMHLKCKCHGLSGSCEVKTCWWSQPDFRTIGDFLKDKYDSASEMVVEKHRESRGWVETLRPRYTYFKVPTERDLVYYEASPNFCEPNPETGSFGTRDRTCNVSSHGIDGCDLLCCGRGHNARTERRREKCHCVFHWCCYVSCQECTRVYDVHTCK
Paired box protein Pax-8, sequence (Q06710 whole entry): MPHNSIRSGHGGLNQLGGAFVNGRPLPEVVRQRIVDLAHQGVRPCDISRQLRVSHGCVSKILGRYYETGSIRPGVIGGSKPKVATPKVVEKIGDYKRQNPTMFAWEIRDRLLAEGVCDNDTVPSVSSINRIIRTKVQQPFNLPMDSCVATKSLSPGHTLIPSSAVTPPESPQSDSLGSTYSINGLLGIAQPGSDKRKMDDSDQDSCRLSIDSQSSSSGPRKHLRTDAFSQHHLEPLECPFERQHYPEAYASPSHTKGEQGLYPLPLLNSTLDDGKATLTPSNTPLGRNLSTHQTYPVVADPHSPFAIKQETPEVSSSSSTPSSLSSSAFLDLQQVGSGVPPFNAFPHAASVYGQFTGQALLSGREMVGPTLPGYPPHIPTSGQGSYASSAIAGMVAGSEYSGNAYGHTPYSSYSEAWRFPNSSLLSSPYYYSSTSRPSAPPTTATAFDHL
COUP transcription factor 2, sequence (P24468 whole entry): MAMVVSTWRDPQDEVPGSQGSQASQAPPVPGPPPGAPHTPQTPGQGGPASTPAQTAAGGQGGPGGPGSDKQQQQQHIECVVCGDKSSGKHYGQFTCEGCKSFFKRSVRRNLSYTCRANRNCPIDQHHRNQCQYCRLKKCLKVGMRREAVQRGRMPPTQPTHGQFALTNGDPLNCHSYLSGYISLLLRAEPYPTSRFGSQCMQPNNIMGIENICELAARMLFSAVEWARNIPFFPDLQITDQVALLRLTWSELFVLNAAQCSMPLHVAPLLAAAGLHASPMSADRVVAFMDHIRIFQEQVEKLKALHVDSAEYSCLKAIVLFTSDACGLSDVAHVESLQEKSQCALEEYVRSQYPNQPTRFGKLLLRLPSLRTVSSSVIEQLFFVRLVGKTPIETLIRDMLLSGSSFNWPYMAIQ

CCOc1ccc(CCNC(=O)c2cccc(S(=O)(=O)N3CCN(C(C)=O)CC3)c2)cc1OCC
AC50 [1]: > 30 µM (inactive)

CCN(CC)S(=O)(=O)c1ccc(C(=O)OCC(=O)Nc2ccc(-c3nc4ccc(C)cc4s3)cc2)cc1
EC50 [2]: > 67.5 µM (inactive)

C(=Cc1c[nH]c2ccccc12)c1nccc2ccccc12
EC50 [3]: > 67.6 µM (inactive) | EC50 [4]: > 67.4 µM (inactive) | EC50 [5]: > 67.4 µM (inactive) | IC50 [6]: > 67.6 µM (inactive)

Cc1nn(C)c(C)c1CN(C)S(=O)(=O)c1ccc2ccccc2c1
AC50 [7]: 1.93 µM (active) | IC50 [8]: 12.6 µM (active) | IC50 [9]: 3.25 µM (active) | IC50 [10]: > 80 µM (inactive) | AC50 [11]: 0.626 µM (active) | EC50 [12]: > 29.9 µM (inactive) | IC50 [13]: 1.01 µM (active) | AC50 [14]: 2.42 µM (active)

COC(=O)C(C)(C)c1cccnc1C#N
IC50 [15]: > 122 µM (inactive) | IC50 [16]: 2.7 µM (active)

Cc1ccc(S(=O)(=O)N2C[C@@H]3CCCC[C@@H]3[C@@H](C)[C@H]2c2cn(Cc3ccccc3)c3ccc(F)cc23)cc1
AC50 [1]: > 30 µM (inactive)

CSc1ccc(/C=N/Nc2ccc(Cl)c(C(=O)O)c2)cc1
EC50 [2]: > 67.5 µM (inactive) | EC50 [17]: > 350 µM (not active) | EC50 [18]: 7.23 µM (active)

CCN(CC)S(=O)(=O)c1ccc(S(=O)(=O)Nc2c(C)nn(C)c2C)cc1
AC50 [19]: 1.06 µM (active) | IC50 [20]: 8.16 µM (active) | AC50 [21]: 27.4 µM (active) | AC50 [22]: 2.24 µM (active) | AC50 [23]: 36.6 µM (active)

O=C(Nc1ccccn1)c1sc2cccc(F)c2c1Cl
IC50 [24]: > 67.6 µM (inactive) | EC50 [4]: > 67.6 µM (inactive) | IC50 [25]: > 0.834 µM (active) | EC50 [5]: > 67.6 µM (inactive)

CCCNC(=O)C[C@H]1CC[C@H]2[C@@H](COc3ccc(NC(=O)c4cncs4)cc3C(=O)N2C)O1
IC50 [15]: 55.4 µM (inactive) | IC50 [16]: 59.1 µM (inactive)

CCCC#Cc1ccc([C@H]2[C@@H](C#N)N(C(=O)C3CCCCC3)[C@H]2CO)cc1
AC50 [26]: 3.5 µM (active) | AC50 [27]: 30.3 µM (active) | AC50 [28]: 7.11 µM (active) | AC50 [29]: 29.6 µM (active) | AC50 [30]: 13.2 µM (active) | AC50 [31]: 23.9 µM (active) | AC50 [32]: 49.9 µM (active) | AC50 [33]: 30 µM (active) | AC50 [34]: 12.7 µM (active) | AC50 [35]: 28 µM (active)
